Source: the supplement of paper PMC8967900

What was measured:
Assay in all cases: selective drug sensitivity score (sDSS, relative to normal bone marrow) (sDSS (score)); higher = more potent and effective on the cell line relative to normal bone marrow cells
Conditions in all cases: 72 h
COG-LL-355h = test system: COG-LL-355h
MOLT-14 = test system: MOLT-14
P12-ICHIKAWA = test system: P12-ICHIKAWA
KARPAS-45 = test system: KARPAS-45
ALL-PO = test system: ALL-PO
RCH-ACV = test system: RCH-ACV
P30-OHKUBO = test system: P30-OHKUBO
DND-41 = test system: DND-41
COG-LL-319h = test system: COG-LL-319h
RPMI-8402 = test system: RPMI-8402
PEER = test system: PEER
MHH-CALL-2 = test system: MHH-CALL-2
HAL-01 = test system: HAL-01
REH = test system: REH
CCRF-HSB2 = test system: CCRF-HSB2
TANOUE = test system: TANOUE
COG-LL-332h = test system: COG-LL-332h
SEM cells = test system: SEM cells
MN-60 = test system: MN-60
MOLT-16 = test system: MOLT-16
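Note: ALL cell lines in 384-well plates, five doses spanning 10,000-fold, each plate scaled between vehicle and 100 µmol/L benzalkonium chloride controls, sDSS an adapted area-under-curve metric.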

| Structure (SMILES) | selective drug sensitivity score (COG-LL-355h) | selective drug sensitivity score (MOLT-14) | selective drug sensitivity score (P12-ICHIKAWA) | selective drug sensitivity score (KARPAS-45) | selective drug sensitivity score (ALL-PO) | selective drug sensitivity score (RCH-ACV) | selective drug sensitivity score (P30-OHKUBO) | selective drug sensitivity score (DND-41) | selective drug sensitivity score (COG-LL-319h) | selective drug sensitivity score (RPMI-8402) | selective drug sensitivity score (PEER) | selective drug sensitivity score (MHH-CALL-2) | selective drug sensitivity score (HAL-01) | selective drug sensitivity score (REH) | selective drug sensitivity score (CCRF-HSB2) | selective drug sensitivity score (TANOUE) | selective drug sensitivity score (COG-LL-332h) | selective drug sensitivity score (SEM cells) | selective drug sensitivity score (MN-60) | selective drug sensitivity score (MOLT-16) |
| --- | --- | --- | --- | --- | --- | --- | --- | --- | --- | --- | --- | --- | --- | --- | --- | --- | --- | --- | --- | --- |
| CC1(C)NC(=O)N(c2ccc([N+](=O)[O-])c(C(F)(F)F)c2)C1=O [Nilutamide] (top concentration 10000 nM) | -0.48 | -0.48 | -0.48 | -0.48 | -0.08 | -0.48 | -0.18 | -0.38 | -0.48 | -0.18 | 0.32 | 7.92 | 2.82 | 0.22 | -0.48 | -0.48 | -0.48 | -0.48 | -0.48 | 2.72 |
| COc1cc2c(cc1OCCCN1CCCC1)N=C(N)C21CCC1 [A-366] (top concentration 25000 nM) | 0.76 | 3.16 | -0.84 | 5.16 | 1.76 | 0.06 | 2.56 | 4.56 | 3.16 | 4.06 | 1.46 | -1.14 | -1.84 | 0.36 | 0.16 | -1.84 | 4.86 | 0.46 | -1.84 | 3.46 |
| Nc1nc(N)c2nc(-c3cccc(O)c3)c(-c3cccc(O)c3)nc2n1 [TG100-115] (top concentration 10000 nM) | 3.7 | -0.4 | -0.3 | 0.8 | -0.2 | 5.6 | 3.6 | 0.1 | 0.6 | 0 | -0.2 | 5.2 | 3.2 | 5.1 | 3.9 | -0.4 | 0.2 | 0.7 | -0.4 | 1.1 |
| COc1cc2ncnc(Nc3ccc(F)c(Cl)c3)c2cc1NC(=O)/C=C/CN1CCCCC1 [Dacomitinib] (top concentration 1000 nM) | 1.06 | 0.86 | -1.44 | 0.36 | 3.06 | 0.16 | 0.96 | -1.04 | -1.24 | -0.34 | -0.14 | 2.06 | 2.66 | -1.04 | 3.76 | -1.64 | -0.84 | 0.86 | -1.64 | -1.04 |
| Cc1ccc(F)c(NC(=O)Nc2ccc(-c3cccc4[nH]nc(N)c34)cc2)c1 [Linifanib] (top concentration 1000 nM) | -1.12 | -1.12 | -1.12 | -1.12 | -1.12 | -1.12 | -1.12 | -0.02 | -1.12 | -1.12 | -1.12 | -1.12 | -1.12 | -1.12 | -1.12 | -1.12 | -1.12 | 1.28 | -1.12 | -1.12 |
| Oc1ncnc2[nH]ncc12 [Allopurinol] (top concentration 10000 nM) | -0.64 | -0.64 | -0.64 | -0.24 | -0.64 | -0.64 | 0.96 | -0.64 | 3.56 | -0.64 | -0.64 | -0.64 | -0.64 | -0.64 | -0.64 | -0.64 | -0.64 | -0.54 | -0.64 | -0.64 |
| CC/C(=C(\c1ccccc1)c1ccc(OCCN(C)C)cc1)c1ccccc1 [Tamoxifen] (top concentration 10000 nM) | 1.82 | 0.62 | 0.32 | 1.92 | 2.72 | 4.42 | 3.32 | 3.72 | 5.42 | 0.42 | 1.02 | 0.82 | 1.82 | 1.02 | 0.92 | -2.28 | 1.32 | -1.28 | -1.58 | 2.82 |
| CCNC(=O)CCC/C=C\C[C@@H]1[C@@H](/C=C/[C@@H](O)CCc2ccccc2)[C@H](O)C[C@@H]1O [Bimatoprost] (top concentration 5500 nM) | 0 | 0 | 0 | 0 | 0 | 0 | 0 | 5.6 | 0 | 0 | 0 | 0 | 0 | 1.4 | 0 | 0 | 0 | 0 | 0 | 0 |
| N#CC(c1ccnc(OCc2ccc(CN3CCOCC3)cc2)n1)c1nc2ccccc2s1 (stereo not given) [Bentamapimod] (top concentration 10000 nM) | 1.84 | 2.74 | 2.94 | 5.54 | 6.24 | 4.44 | 5.34 | 3.64 | -0.06 | 4.94 | 5.64 | 4.94 | 2.74 | 6.54 | 4.04 | 0.84 | 2.94 | 3.24 | 2.44 | 4.04 |
